Source: PubChem BioAssay AID1963434 (Molecular Pharmacology Branch, DTP, NCI, 2024)
“And” between values parts separate entries of the source, which are not always exact repeats. Identical values can stand only once.

System: 755483-174-R-J1-PDC complex spheroid growth, percent test/control
Assay: Anticancer human tumor 755483-174-R-J1-PDC patient-derived rhabdomyosarcoma cell line growth inhibition [Asc]
Conditions: for viability, T/C: stronger effect = lower value
Method: Multicellular complex tumor spheroid response to apoptosis pathway targeting inhibitors Alrizomadlin, Pelcitoclax, and Dasminapant in combination with a variety of drugs and investigational agents in selected tumor cell lines
The MDM2 inhibitor alrizomadlin, the Bcl-2/Bcl-xL inhibitor pelcitoclax, and the IAPs inhibitor dasminapant were evaluated both individually and in combination with standard of care and investigational anticancer small molecules within a complex spheroid model of solid tumors. . Complex spheroids include a stromal component modeled by human endothelial cells (HUVEC) and fibroblasts modeled by human mesenchymal stem cells (MSCs). The concentration ranges selected for each drug and investigational agent were based upon clinically achievable concentrations if the clinical Cmax of the agent was known.
Compounds. The drugs and investigational agents: alrizomadlin (APG-115; NSC831270), pelcitoclax (APG-1252; NSC835773), dasminapant (APG-1387;NSC834197), TAK-243 (NSC785004), copanlisib (NSC809693), olaparib (NSC753686), talazoparib (NSC767125), cobimetinib (NSC 768068), eltanexor (KPT-8602, NSC 794443), abemaciclib (NSC 768073), sotorasib (NSC818433), adagrasib (NSC 831453), MRTX-1133 (NSC 836407), Iadademestat (ORY1001, NSC 806812), and RMC-4630 (NSC839698), were obtained from the NCI Developmental Therapeutics Program Chemical Repository. The FDA-approved anticancer drug set is available from the Developmental Therapeutics Program at https://dtp.cancer.gov/organization/dscb/obtaining/available plates.htm. […] The stock solutions were prepared in dimethyl sulfoxide (DMSO, Sigma-Aldrich, St. Louis, MO, cat. D2650) at 800-fold the tested concentration and stored at -70 degrees C prior to their use. All drugs and investigational agents were tested over a range starting from a high concentration at or near the clinical Cmax and decreasing in half-log increments. If the clinical Cmax for an agent had not been determined, the highest concentration tested was 10 microM.
The patient-derived cancer (PDC) cell lines include five colon adenocarcinomas: 186277-243-T-J2-PDC, 616215-338-R-J1-PDC, 439559-082-T-J2-PDC, 463943-066-T-J2-PDC, and 519858-162-T-J1-PDC; three pancreatic carcinomas: 323965-272-R-J2-PDC, 521955-158-R6-J3-PDC, and 521955-158-R2-J5-PDC; two uterine sarcomas: 327498-152-R-J2-PDC and 993429-296-R-J1-PDC; two rhabdomyosarcomas: 755483-174-R-J1-PDC and 772245-204-R-J1-PDC; two soft tissue sarcomas: 126254-015-R-J1-PDC and 494315-158-R-J1-PDC; two malignant fibrous histiocytomas: 317291-083-R-J1-PDC and 596521-263-R-J1-PDC; two breast carcinomas: 171881-019-R-J1-PDC and 885512-296-R-J2-PDC; and one ovarian carcinoma: 6556581-035-R-J-PDC were obtained from the NCI PDMR, (https://pdmr.cancer.gov). The established cell lines HSSY-2 synovial sarcoma (RRID:CVCL 8719), SYO-1 synovial sarcoma (RRID:CVCL_7146), MPNST malignant peripheral neural sheath tumor were obtained from the Sloan Kettering Institute. The following established cell lines were purchased from the American Type Culture Collection (ATCC, Manassas, VA), Sor the received from the NCI repository:, PANC-1 pancreatic carcinoma (CRL-1469, RRID:CVCL_0480), OVCAR-5 ovarian carcinoma (RRID:CVCL_1628), OVCAR-8 ovarian carcinoma (RRID:CVCL_1629), , MCF-7 breast carcinoma (CRL-12584, RRID:CVCL_0031), MDA-MB-231 breast carcinoma (CRL-12532, RRID:CVCL_0062), NCI-H1876 small cell lung carcinoma (CRL-5902, RRID:CVCL_1503), NCI-H510A small cell lung carcinoma (HTB-184, RRID:CVCL_1565), NCI-H1417 (CRL-5869, RRID:CVCL_1469), and NCI-H196 small cell lung carcinoma (CRL-5823, RRID:CVCL_1509). Dr. Peter Houghton (Greehey Children's Cancer Research Institute, University of Texas Health Science Center, San Antonio, TX) provided Rh-18 rhabdomyosarcoma (RRID:CVCL_1659). Pooled donor human umbilical vein endothelial cells (HUVEC, Lonza, cat. CC-2519) and human mesenchymal stem cells (hMSC, Lonza, cat. PT-2501) were purchased from Lonza (Walkersville, MD).
Cell Culture. […]
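Also: spheroids exposed to compounds for seven days before readout.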

| Structure (SMILES) | IC50 (curve of compound) | viability, T/C (compound 0.0316 µM) | viability, T/C (compound 0.1 µM) | viability, T/C (compound 0.316 µM) | viability, T/C (compound 1 µM) | viability, T/C (compound 10 µM) | viability, T/C (compound 0.00316 µM) | viability, T/C (compound 0.01 µM) | also measured |
| --- | --- | --- | --- | --- | --- | --- | --- | --- | --- |
| C#Cc1c(F)ccc2cc(O)cc(-c3ncc4c(N5CC6CCC(C5)N6)nc(OCC56CCCN5CC(F)C6)nc4c3F)c12 (centres undefined) | 6770 nM and 6630 nM and > 10000 nM | 97.7% and 125% and 101% | 114% and 91.6% and 119% | 92.6% and 113% and 90.3% | 117% and 100% and 127% | 31.7% and 34.9% and 58.8% |  |  | viability, T/C (compound 3.16 µM): 85.7% and 76.6% and 92.3% |
| CCN1CCN(Cc2ccc(Nc3ncc(F)c(-c4cc(F)c5nc(C)n(C(C)C)c5c4)n3)nc2)CC1 | > 1000 nM | 119% and 93.6% and 74.1% | 120% and 83.7% and 118% | 115% and 99.3% and 99.2% | 113% and 132% and 99% |  | 112% and 99% and 77.5% | 85.6% and 83.7% and 100% |  |
| Cc1c(S(C)(=O)=O)c(-c2cc(F)cc(N3CCN(c4ccc(NS(=O)(=O)c5ccc(NC(CCN6CCC(C(=O)OCCCP(=O)(O)O)CC6)CSc6ccccc6)c(S(=O)(=O)C(F)(F)F)c5)cc4)CC3)c2)c(-c2ccc(Cl)cc2)n1C(C)C (centres undefined) |  |  |  |  |  | 41.7% [middle of 14 runs] |  |  |  |
| NC(=O)C(=Cn1cnc(-c2cc(C(F)(F)F)cc(C(F)(F)F)c2)n1)c1cncnc1 | 6.11 nM and 5.25 nM and 6.23 nM |  |  |  |  |  |  |  | viability, T/C (compound 0.000949 µM): 83.4% and 72.6% and 109%; viability, T/C (compound 0.003 µM): 79.3% and 74.5% and 76.7%; viability, T/C (compound 0.00949 µM): 31.9% and 25.1% and 35.4%; viability, T/C (compound 0.03 µM): 12.6% and 12.7% and 19.2%; viability, T/C (compound 0.0949 µM): 8.9% and 7.51% and 9.5%; viability, T/C (compound 0.3 µM): 9.16% and 4.1% and 26.1% |
| NC1CCC(NC2CC2c2ccccc2)CC1 (centres undefined) | > 100 nM | 68.1% and 94.5% and 113% | 79.2% and 83.4% and 66.6% |  |  |  | 77.8% and 102% and 61.7% | 82.8% and 87.8% and 74.4% | viability, T/C (compound 0.000316 µM): 90.9% and 70.4% and 80.8%; viability, T/C (compound 0.001 µM): 80.2% and 77.2% and 82.2% |
| O=C(c1cc(Cc2n[nH]c(=O)c3ccccc23)ccc1F)N1CCN(C(=O)C2CC2)CC1 | 713 nM and 2730 nM and 2210 nM | 81.5% and 67.3% and 77.6% | 57.5% and 87% and 85.7% | 70.2% and 82% and 67.8% | 41.8% and 56.8% and 65.6% | 30.1% and 17.6% and 22.7% |  |  | viability, T/C (compound 3.16 µM): 32.3% and 51.1% and 43.3% |

Further lines, with some results ahead:

| IC50 (curve of compound) | Structure (SMILES) | viability, T/C (compound 0.0316 µM) | viability, T/C (compound 0.1 µM) | viability, T/C (compound 0.316 µM) | viability, T/C (compound 1 µM) | viability, T/C (compound 10 µM) | viability, T/C (compound 0.00316 µM) | viability, T/C (compound 0.01 µM) | also measured |
| --- | --- | --- | --- | --- | --- | --- | --- | --- | --- |
| 1810 nM and 1760 nM and 1880 nM | C=C(F)C(=O)N1CCN(c2nc(OCC3CCCN3C)nc3c2CCN(c2cccc4cccc(Cl)c24)C3)CC1CC#N (centres undefined) | 95.7% and 76.6% and 114% | 91% and 57% and 109% | 95% and 99.3% and 78.9% | 80.1% and 74.6% and 88.8% | 0.14% and 0.16% and 0.18% |  |  | viability, T/C (compound 3.16 µM): 21.4% and 23.7% and 19.3% |
| > 10000 nM | C=CC(=O)N1CCN(c2nc(=O)n(-c3c(C)ccnc3C(C)C)c3nc(-c4c(O)cccc4F)c(F)cc23)C(C)C1 (centres undefined) | 99.7% and 81.3% and 102% | 98.4% and 72.6% and 109% | 115% and 63% and 100% | 94.8% and 72.7% and 121% | 74.8% and 69.6% and 85.6% |  |  | viability, T/C (compound 3.16 µM): 117% and 78.5% and 88.8% |
| > 3000 nM | CCN1C(C(=O)NC23CCC(C(=O)O)(CC2)CC3)C(c2cccc(Cl)c2F)C2(C(=O)Nc3cc(Cl)ccc32)C12CCCCC2 (centres undefined) |  |  |  |  |  |  |  | viability, T/C (compound 0.00949 µM): 92.3% and 75.3%; IC50 (compound alone, run of 09/27/2022): > 3000 nM |
| < 3.16 nM and 23 nM | CNC(C)C(=O)NC1CN(S(=O)(=O)c2cccc(S(=O)(=O)N3CCC4CCC(C(=O)NC(c5ccccc5)c5ccccc5)N4C(=O)C(NC(=O)C(C)NC)C3)c2)CCC2CCC(C(=O)NC(c3ccccc3)c3ccccc3)N2C1=O (centres undefined) |  | 37.5% [middle of 15 runs] |  |  |  | 48.1% and 88.5% |  |  |
| 31.3 nM and 46.2 nM and 104 nM | COc1c(OCCCN2CCOCC2)ccc2c3n(c(=NC(=O)c4cnc(N)nc4)nc12)CCN3 | 48.4% and 58.9% and 88.5% | 32.9% and 32.1% and 51.3% | 11.3% and 12% and 19.7% | 5.83% and 6.96% and 8.42% |  | 81.5% and 75.7% and 125% | 68.4% and 71.7% and 105% |  |
| 291 nM and 325 nM and 73 nM | Cc1nc(N2CCC3(CC2)COC(C)C3N)c(CO)nc1Sc1ccnc(N)c1Cl (centres undefined) |  |  |  |  |  |  |  | viability, T/C (compound 0.00949 µM): 92.6% and 79% and 106%; viability, T/C (compound 0.03 µM): 82.3% and 110% and 95.9%; viability, T/C (compound 0.0949 µM): 82.2% and 74.3% and 36.2%; viability, T/C (compound 0.3 µM): 47.3% and 50.9% and 53.9%; viability, T/C (compound 0.949 µM): 31.6% and 34.4% and 28.9%; viability, T/C (compound 3 µM): 22.1% and 20.2% and 18.8% |
| 32.7 nM and 18.1 nM and 6.39 nM | Cn1ncnc1[C@H]1c2n[nH]c(=O)c3cc(F)cc(c23)N[C@@H]1c1ccc(F)cc1 | 50.1% and 45.9% and 31.2% | 41.2% and 38.3% and 23.1% |  |  |  | 84.2% and 86.5% and 53.9% | 74.4% and 58.5% and 52.2% | viability, T/C (compound 0.000316 µM): 88.4% and 89% and 81.2%; viability, T/C (compound 0.001 µM): 83.4% and 79.9% and 66.1% |
| 369 nM and 409 nM and 413 nM | O=C(c1ccc(F)c(F)c1Nc1ccc(I)cc1F)N1CC(O)([C@@H]2CCCCN2)C1 | 96.3% and 99.1% and 95.6% | 91.4% and 70.1% and 93.1% | 53.5% and 61.5% and 60.8% | 18.9% and 14.9% and 13.3% |  | 109% and 82.3% and 101% | 117% and 73.6% and 104% |  |
